Measured values as given in patent publication US10829487B2, “Benzylamino substituted pyridopyrimidinones and derivatives as SOS1 inhibitors” (Boehringer Ingelheim International GmbH, priority 2017, dated 2020).

Tested on: not listed separately
Experiment: Metabolic (microsomal) stability assay, human liver microsomes (HLM)
Format: in vitro ADME
Details: 1 μM test compound, 37° C.
Procedure: (§1) Metabolic (Microsomal) Stability Assay: The metabolic degradation of the test compound is assayed at 37° C. with pooled liver microsomes (mouse (MLM), rat (RLM) or human (HLM)). The final incubation volume of 74 μL per time point contains TRIS buffer (pH 7.5; 0.1 M), magnesium chloride (6.5 mM), microsomal protein (0.5 mg/mL for mouse/rat, 1 mg/mL for human specimens) and the test compound at a final concentration of 1 μM. Following a short preincubation period at 37° C., the reactions are initiated by addition of 8 μL beta-nicotinamide adenine dinucleotide phosphate, reduced form (NADPH, 10 mM) and terminated by transfering an aliquot into solvent after different time points. Additionally, the NADPH-independent degradation is monitored in incubations without NADPH, terminated at the last time point by addition of acetonitrile. The quenched incubations are pelleted by centrifugation (1811 g, 5 min). An aliquot of the supernatant is assayed by LC-MS/MS for the amount of parent compound. In vitro intrinsic clearance (CLint, in vitro) is calculated from the time course of the disappearance of the test drug during the microsomal incubation. Each plot is fitted to the first-order elimination rate constant as C(t)=C0*exp(−ke*t), where C(t) and C0 are the concentration of unchanged test drug at incubation time t and that at preincubation and ke is the disappearance rate constant of the unchanged drug. Subsequently, CLint, in vitro (μL min^−1·amount protein) values are converted to CLint, in vitro (mL min^−1·kg^−1) for the whole body. CLint, in vitro data are scaled up using physiological parameters. For better across species comparison the predicted clearance is expressed as percent of the liver blood flow [% QH] in the individual species. In general, high stability (corresponding to low % QH) of the compounds across species is desired.

Question: With `Cc1nc(N[C@H](C)c2cccc(C(F)F)c2F)c2cn(C3(C(F)F)CC3)c(=O)cc2n1` [I-3] as the molecule, how does the “HLM [% QH]” value read?
Answer: <24 % QH

Question: With `Cc1nc(N[C@H](C)c2cccc(C(F)F)c2F)c2cn(C3(C(F)(F)F)CC3)c(=O)cc2n1` [I-4] as the molecule, how does the “HLM [% QH]” value read?
Answer: <24 % QH

Question: With `Cc1nc(N[C@H](C)c2cccc(C(F)F)c2F)c2cn([C@H](C)C(F)(F)F)c(=O)cc2n1` [I-10] as the molecule, how does the “HLM [% QH]” value read?
Answer: <24 % QH

Tested on: not listed separately
Experiment: Metabolic (microsomal) stability assay, rat liver microsomes (RLM)
Format: in vitro ADME
Details: 1 μM test compound, 37° C.
Procedure: as §1

Question: Which “RLM [% QH]” value does the source give for `Cc1nc(N[C@H](C)c2cccc(C(F)F)c2F)c2cn(C3(C(F)F)CC3)c(=O)cc2n1` [I-3] here?
Answer: <23 % QH

Question: With `Cc1nc(N[C@H](C)c2cccc(C(F)F)c2F)c2cn(C3(C(F)(F)F)CC3)c(=O)cc2n1` [I-4] as the molecule, how does the “RLM [% QH]” value read?
Answer: <23 % QH

Question: With `Cc1nc(N[C@H](C)c2cccc(C(F)F)c2F)c2cn([C@H](C)C(F)(F)F)c(=O)cc2n1` [I-10] as the molecule, how does the “RLM [% QH]” value read?
Answer: 40 % QH

Tested on: not listed separately
Experiment: Metabolic (microsomal) stability assay, mouse liver microsomes (MLM)
Format: in vitro ADME
Details: 1 μM test compound, 37° C.
Procedure: as §1

Question: With `Cc1nc(N[C@H](C)c2cccc(C(F)F)c2F)c2cn(C3(C(F)F)CC3)c(=O)cc2n1` [I-3] as the molecule, how does the “MLM [% QH]” value read?
Answer: 51 % QH

Question: With `Cc1nc(N[C@H](C)c2cccc(C(F)F)c2F)c2cn(C3(C(F)(F)F)CC3)c(=O)cc2n1` [I-4] as the molecule, how does the “MLM [% QH]” value read?
Answer: 46 % QH

Question: Which “MLM [% QH]” value does the source give for `Cc1nc(N[C@H](C)c2cccc(C(F)F)c2F)c2cn([C@H](C)C(F)(F)F)c(=O)cc2n1` [I-10] here?
Answer: 41 % QH

Molecular target: protein-protein interaction between SOS1 and KRAS G12D (Homo sapiens (Human), UniProt Q07889)
Experiment: KRAS::SOS1 AlphaScreen Binding Assay
Details: KRAS G12D::SOS1 AlphaScreen; measured without EDTA unless marked with an asterisk
Excerpt: KRAS::SOS1 AlphaScreen Binding Assay
Low IC50 values are indicative of high potency of the SOS1 inhibitor compound in this assay setting:
Reagents: • GST-tagged SOS1 (564_1049_GST_TEV_ECO) produced in-house • GST-TEV-SOS1 (564-1049) is purchased from Viva Biotech Ltd. • 6×His-Tev-K-RasG12D(1-169)Avi is purchased from Xtal BioStructures, Inc. (Lot # X129-110) • GDP (Sigma Cat No G7127) • AlphaLISA Glutathione Acceptor Beads (PerkinElmer, Cat No AL109) • AlphaScreen Streptavidin Donor Beads (PerkinElmer Cat No 6760002) • Assay plates: Proxiplate-384 PLUS, white (PerkinElmer, Cat No 6008289)
10 nM (final assay concentration) KRAS G12D, 10 μM (final assay concentration) GDP and 5 nM (final assay concentration) GST-SOS1 are mixed in assay buffer prior to use and kept at room temperature.
AlphaLISA Glutathione Acceptor Beads and AlphaScreen Streptavidin Donor Beads are mixed in assay buffer at a concentration of 10 μg/mL (final assay concentration) each prior to use and kept at room temperature.
Compounds are diluted to a final start concentration of 100 μM and are tested in duplicate. Assay-ready plates (ARPs) are generated using an Access Labcyte Workstation with a Labcyte Echo 550 or 555 accoustic dispenser. For compound a start concentration of 100 μM, 150 nL of compound solution is transferred per well in 11 concentrations in duplicate with serial 1:5 dilutions.
The assay is run using a fully automated robotic system in a darkened room below 100 Lux. 10 μL of KRAS::SOS1 GDP mix is added into columns 1-24 to the 150 nL of compound solution (final dilution in the assay 1:100, final DMSO concentration 1%).
After a 30 minute incubation time 5 μL of bead mix is added into columns 1-23. Plates are kept at room temperature in a darkened incubator. After a further 60 minute incubation, the signal is measured using a PerkinElmer Envision HTS Multilabel Reader using the AlphaScreen specifications from PerkinElmer. Each plate contains the following controls: • diluted DMSO+KRAS::SOS1 GDP mix+bead mix • diluted DMSO+KRAS::SOS1 GDP mix
IC50 values are calculated and analyzed using a 4 parametric logistic model.

protein-protein interaction between SOS1 and KRAS G12D, sequence (Q07889 564-1049, stated change not applied): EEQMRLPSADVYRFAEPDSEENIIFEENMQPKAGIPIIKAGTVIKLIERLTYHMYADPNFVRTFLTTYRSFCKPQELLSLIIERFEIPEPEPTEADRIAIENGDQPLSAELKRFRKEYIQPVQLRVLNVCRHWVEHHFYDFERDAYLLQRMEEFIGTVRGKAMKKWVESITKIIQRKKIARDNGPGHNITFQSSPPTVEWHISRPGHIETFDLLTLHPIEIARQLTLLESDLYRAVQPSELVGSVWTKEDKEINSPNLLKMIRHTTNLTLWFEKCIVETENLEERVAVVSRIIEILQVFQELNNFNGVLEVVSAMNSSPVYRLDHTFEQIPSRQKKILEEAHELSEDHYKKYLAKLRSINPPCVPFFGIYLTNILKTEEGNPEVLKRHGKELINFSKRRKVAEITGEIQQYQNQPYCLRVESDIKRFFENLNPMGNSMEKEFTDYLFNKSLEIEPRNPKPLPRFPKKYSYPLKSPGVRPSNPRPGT

Question: With `C[C@@H](Nc1ncnc2cc(=O)n(C3(C)CC3)cc12)c1cccc2c1CCC2(F)F` [I-104] as the molecule, how does the IC50 read?
Answer: 4 nM

Question: Which IC50 does the source give for `C[C@@H](Nc1ncnc2cc(=O)n(C34CC(C3)C4)cc12)c1cccc2c1CCC2(F)F` [I-106] here?
Answer: 4 nM

Question: For `Cc1nc(N[C@H](C)c2cccc(C(F)F)c2F)c2cn([C@@]3(C(F)(F)F)CCOC3)c(=O)cc2n1` [I-118], which IC50 is on record?
Answer: 20 nM

Question: Which IC50 does the source give for `Cc1nc(N[C@H](C)c2cccc(C(F)F)c2F)c2cn([C@]3(C(F)(F)F)CCOC3)c(=O)cc2n1` [I-119] here?
Answer: 5 nM

Question: For `Cc1nc(N[C@H](C)c2cccc(C(F)F)c2F)c2cn(C34CCC(CC3)CC4)c(=O)cc2n1` [I-120], which IC50 is on record?
Answer: 6 nM

Question: For `Cc1nc(N[C@H](C)c2cccc(C(F)F)c2F)c2cn(C34CCC(F)(CC3)CC4)c(=O)cc2n1` [I-121], which IC50 is on record?
Answer: 5 nM

Question: With `Cc1nc(N[C@H](C)c2cccc(C(F)F)c2F)c2cn(C34CCC(O)(CC3)CC4)c(=O)cc2n1` [I-122] as the molecule, how does the IC50 read?
Answer: 3 nM

Question: Which IC50 does the source give for `Cc1nc(N[C@H](C)c2cccc(C(F)F)c2C)c2cn(C34CCC(C(=O)N(C)C)(CC3)CC4)c(=O)cc2n1` [I-124] here?
Answer: 2 nM

Question: For `Cc1nc(N[C@H](C)c2cccc(C(F)(F)CO)c2F)c2cn(C34CCC(CC3)CC4)c(=O)cc2n1` [I-130], which IC50 is on record?
Answer: 1 nM

Question: Which IC50 does the source give for `Cc1nc(N[C@H](C)c2cccc(C(F)F)c2F)c2cn(C3(C)CC3)c(=O)c(C)c2n1` [I-155] here?
Answer: 5 nM

Question: Which IC50 does the source give for `Cc1nc(N[C@H](C)c2cccc(C(F)F)c2F)c2cn(C34CCC(O)(CC3)CC4)c(=O)c(C)c2n1` [I-156] here?
Answer: 4 nM

Question: With `Cc1nc(N[C@H](C)c2cccc(C(F)F)c2C)c2cn(C3(C)CC3)c(=O)c(C)c2n1` [I-157] as the molecule, how does the IC50 read?
Answer: 5 nM

Question: Which IC50 does the source give for `Cc1nc(N[C@H](C)c2cccc3c2CCC3(F)F)c2cn(C34CCN(CC3)C4)c(=O)c(C)c2n1` [I-160] here?
Answer: 2 nM

Question: With `Cc1c(=O)n(C2(CF)CC2)cc2c(N[C@H](C)c3cccc(C(F)F)c3F)ncnc12` [I-162] as the molecule, how does the IC50 read?
Answer: 7 nM

Question: For `Cc1c(=O)n(C2(C(F)(F)F)CC2)cc2c(N[C@H](C)c3cccc(C(F)F)c3F)ncnc12` [I-164], which IC50 is on record?
Answer: 13 nM

Question: For `Cc1c(=O)n(C2CC23CC3)cc2c(N[C@H](C)c3cccc(C(F)F)c3F)ncnc12` (some centres unmarked) [I-167], which IC50 is on record?
Answer: 36 nM

Same assay, conditions: Table 20; KRAS::SOS1 AlphaScreen (SOS1 / KRAS G12D)

Question: For `Cc1nc(N[C@H](C)c2cccc(C(F)F)c2F)c2cn(C3(C(F)(F)F)CC3)c(=O)cc2n1` [I-4], which IC50 is on record?
Answer: 8 nM

Question: Which IC50 does the source give for `Cc1nc(N[C@H](C)c2cccc(C(F)F)c2F)c2cn([C@H](C)C(F)(F)F)c(=O)cc2n1` [I-10] here?
Answer: 11 nM

Tested on: ERK phosphorylation in DLD-1 cells (KRAS G13D)
Experiment: ERK Phosphorylation Assay (AlphaLISA SureFire Ultra p-ERK1/2)
Format: cell-based
Details: Homo sapiens, 1 h compound, EGF 50 ng/mL 10 min, read-out: pERK
Procedure: ERK Phosphorylation Assay
Low IC50 values are indicative of high potency of the SOS1 inhibitor compounds in this assay setting.
ERK phosphorylation assays are performed using the following human cell lines: DLD-1 (ATCC CCL-221): human colon cancer with a KRAS G13D mutation;
DLD-1 cells (ATCC CCL-221) are seeded at 50,000 cells per well in/60 μL of RPMI with 10% FBS, non-essential amino acids, pyruvate and glutamax in Greiner TC 384 plates. The cells are incubated for 1 h at room temperature and then incubated overnight in an incubator at 37° C. and 5% CO2 in a humidified atmosphere. 60 nL compound solution (10 mM DMSO stock solution) is then added using a Labcyte Echo 550 device. After a 1 h incubation in the aforementioned incubator, 3 μL Epidermal Growth Factor (EGF, final concentration 50 ng/mL) is added. 10 minutes later the medium is removed, and the cells lysed by addition of 20 μL of 1.6-fold lysis buffer from the AlphaLISA SureFire Ultra pERK1/2 (Thr202/Tyr204) Assay Kit with added protease inhibitors, 100 nM trametinib+100 nM staurosporine. After 20 minutes of incubation at room temperature with shaking, 6 μL of each lysate sample is transferred to a 384-well Proxiplate and analyzed for pERK (Thr202/Tyr204) with the AlphaLISA SureFire Ultra pERK1/2 (Thr202/Tyr204) Assay Kit. 3 μL Acceptor Mix and 3 μL Donor Mix are added under subdued light and incubated for 2 h at room temperature in the dark, before the signal is measured on a Perkin Elmer Envision plate reader using 384 AlphaScreen settings for Proxiplates. Data are fitted by iterative calculation with variable hill slope. The sigmoidal curve slope is fitted using a default fitting curve to ascertain IC50 values.

Question: With `C[C@@H](Nc1ncnc2cc(=O)n(C3(C)CC3)cc12)c1cccc2c1CCC2(F)F` [I-104] as the molecule, how does the IC50 read?
Answer: 87 nM

Question: With `C[C@@H](Nc1ncnc2cc(=O)n(C34CC(C3)C4)cc12)c1cccc2c1CCC2(F)F` [I-106] as the molecule, how does the IC50 read?
Answer: 113 nM

Question: With `Cc1nc(N[C@H](C)c2cccc(C(F)F)c2F)c2cn([C@]3(C(F)(F)F)CCOC3)c(=O)cc2n1` [I-119] as the molecule, how does the IC50 read?
Answer: 70 nM

Question: With `Cc1nc(N[C@H](C)c2cccc(C(F)F)c2F)c2cn(C34CCC(F)(CC3)CC4)c(=O)cc2n1` [I-121] as the molecule, how does the IC50 read?
Answer: 93 nM

Question: With `Cc1nc(N[C@H](C)c2cccc(C(F)F)c2C)c2cn(C34CCC(C(=O)N(C)C)(CC3)CC4)c(=O)cc2n1` [I-124] as the molecule, how does the IC50 read?
Answer: 85 nM

Question: Which IC50 does the source give for `Cc1nc(N[C@H](C)c2cccc(C(F)(F)CO)c2F)c2cn(C34CCC(CC3)CC4)c(=O)cc2n1` [I-130] here?
Answer: 38 nM

Question: Which IC50 does the source give for `Cc1nc(N[C@H](C)c2cccc(C(F)F)c2F)c2cn(C34CCC(O)(CC3)CC4)c(=O)c(C)c2n1` [I-156] here?
Answer: 57 nM

Question: Which IC50 does the source give for `Cc1nc(N[C@H](C)c2cccc(C(F)F)c2C)c2cn(C3(C)CC3)c(=O)c(C)c2n1` [I-157] here?
Answer: 104 nM
